# Assay results: PMC11587516 (ACS Chemical Neuroscience, 2024)
# Positions count from the first letter of the chain named. pEC50, pIC50: −log10 of the molar value. Where two headings read alike, the source gives them in different places.
# How the values were obtained:
# hBGT1 = target: T1, hBGT1 (Homo sapiens, UniProt P48065); assay: [3H]GABA uptake assay, CHO cells stably expressing hBGT1; format: cell-based; settings: read-out: inhibition of [3H]GABA uptake; screening concentration 100 μM; CHO cells
# T1 construct: expressed in transfected cells
# T1 sequence (P48065 1-614): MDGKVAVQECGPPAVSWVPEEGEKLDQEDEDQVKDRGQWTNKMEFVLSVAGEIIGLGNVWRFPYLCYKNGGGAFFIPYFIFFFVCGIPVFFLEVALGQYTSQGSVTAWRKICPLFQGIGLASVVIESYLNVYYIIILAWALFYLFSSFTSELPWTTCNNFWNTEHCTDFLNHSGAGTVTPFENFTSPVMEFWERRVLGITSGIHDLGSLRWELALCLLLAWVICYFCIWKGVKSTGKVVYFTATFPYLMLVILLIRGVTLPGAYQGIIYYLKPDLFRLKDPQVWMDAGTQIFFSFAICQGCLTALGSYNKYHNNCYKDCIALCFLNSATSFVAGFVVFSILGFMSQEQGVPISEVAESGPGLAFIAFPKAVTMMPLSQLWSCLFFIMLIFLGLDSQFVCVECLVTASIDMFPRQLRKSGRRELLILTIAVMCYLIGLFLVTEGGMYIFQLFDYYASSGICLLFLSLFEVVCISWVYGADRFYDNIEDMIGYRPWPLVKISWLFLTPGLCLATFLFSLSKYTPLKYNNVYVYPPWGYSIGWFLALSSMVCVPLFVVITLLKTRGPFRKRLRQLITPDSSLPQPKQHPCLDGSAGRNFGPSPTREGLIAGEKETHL
# Procedure: All selected compounds were tested for their ability to inhibit human BGT1 (hBGT1) function.
# The CHO cells were placed in 96-well plates (approximately 50,000 cells/well) for about 24 h before the experiment. […] After incubation, cells were washed 3 times with 100 μL/well ice-cold assay buffer, 150 μL/well MicroScint20 (PerkinElmer) was subsequently added before the plate was shaken for at least 1 h. The radioactivity of each well of the plate was measured on a TopCount NXT scintillation counter. […] Data presented are the pooled data of at least three independent experiments with three technical replicates if not stated otherwise in figure legends. Concentration–response curves were fitted by nonlinear regression to the sigmoidal concentration–response model with GraphPad Prism v 9.0.
# [1] = test system: SH-SY5Y neuroblastoma cells; assay: SH-SY5Y viability, MTS assay, 72 h; format: cell-based, human; settings: 1 µM, reference cytostatic drug
# Description: OC(=O)[C@H]1CNCC[C@@H]1S OC(=O)CCCCCCN1C=CN=C1
# OC(=O)C1CCNCC1 N[C@]12C[C@H]1[C@@H](CC2)C(O)=O
# OC(=O)C1=CCNCC1 N[C@H]1C[C@@H]1CC(O)=O
# O[C@@H]1CNCC[C@H]1C(O)=O N[C@@H]1C[C@@H]1CC(O)=O
# OC(=O)CCCC1=NC=CN1 N[C@H]1C[C@H]1CC(O)=O
# OC(=O)\C=C\C1=NC=CN1 NC[C@H]1C[C@H]1C(O)=O
# OC(=O)\C=C\C1=CNC=N1 NC[C@@H]1C[C@@H]1C(O)=O
# OC(=O)\C=C\C1=CN=CN1 NC[C@@H]1C[C@H]1C(O)=O
# OC(=O)CCC1=CNC=N1 NC[C@H]1C[C@@H]1C(O)=O
# OC(=O)CCC1=CN=CN1 NC1=CC=C(C=N1)C(O)=O
# OC(=O)CCN1C=CN=C1 NC1=NC=C(C=N1)C(O)=O
# OC(=O)CCCC1=NC=CN1 NC(=N)N1CCC(CC1)C(O)=O
# S2. IC50 determination at GAT3 stable GAT3-CHO, compound 9
# Figure S1. IC 50 determination for compound 9. Data represent one of three independent experiments, each performed in three technical replicates.
# S3. […]
# The influence of compound 9 on viability of SH-SY5Y neuroblastoma cells was determined using Aqueous Non-Radioactive Cell Proliferation Assay. […] Upon adding MTS and following 2h incubation, cell viability was calculated and […]
# The effect of compound 9 on viability and proliferation of SH-SY5Y was determined with CellTiter 96® Aqueous Non-Radioactive Cell Proliferation Assay (MTS, Promega, Madison, WI, USA). […] Next MTS was added in fresh medium and after 2h of incubation the absorbance was measured at 490 nm using a microplate reader EnSpire (PerkinElmer, Waltham, MA USA). All results were shown as mean ± SD calculated from two independent experiments. […]
# [2] = test system: normal human astrocytes (NHA); assay: Confocal imaging of astrocyte morphology after incubation in PBS (non-GABA conditions); format: cell-based; settings: 500 μM GABA with 500 μM compound 9 in PBS; 72 h
# Procedure: To this end, we tested whether blocking the transport of GABA under experimental non-GABA extracellular conditions may impair the homeostasis of these cells. […] Afterward, the cells were stained to visualize actin filaments using confocal microscopy. […] Nevertheless, further kinetic studies are necessary to verify this hypothesis.
# NHA was grown on a coverslip in a 35 mm culture dish. After treatment, the cells were fixed (4% paraformaldehyde) and permeabilized (0.1% Triton X-100). Then, the samples were stained with Phalloidin-Atto 565 (Sigma-Aldrich, Inc.) according to the manufacturer’s protocol. Laser confocal microscope Nikon Eclipse Ti-E A1R-Si and Nikon NIS Elements AR software were used for cell imaging.
# [3] = test system: SH-SY5Y neuroblastoma cells; settings: 24 h
# Procedure: The model used mimics certain aspects of neurodegenerative diseases, where GABAergic dysfunction and neuronal death are prominent features. […] The neuroprotection studies were performed to determine the ability of compound 9 to prevent MPP^+ (1-methyl-4-phenylpyridinium) toxicity at a concentration of 1 mM, which was coincubated with compound 9 for 24 h. MPP^+ is a well-established neurotoxin that selectively damages neurons, making it a commonly used agent to model aspects of neurodegenerative conditions in vitro. It induces oxidative stress and mitochondrial dysfunction, leading to cell death. Cell viability was detected by a standard MTS assay.
# Neuroprotection studies were performed according to the procedure described previously.[27] In brief, SH-SY5Y CRL-2266 (American Type Culture Collection, Manassas, VG) were seeded in microplate at a concentration of 2.5 × 10^4 cells/well in 100 μL of culture medium and cultured for 24 h at 37 °C and 5% CO2. […] Next, MPP^+ was added at a final concentration of 1 mM and the cells were placed in the incubator. After 24 h of the compound coincubation with MPP^+, the CellTiter 96 AQueous Nonradioactive Cell Proliferation Assay (MTS) was performed. The test was purchased from Promega (Madison, WI). The absorbance was measured using a microplate reader EnSpire (PerkinElmer, Waltham, MA) at 490 nm. All results were shown as mean ± SD. The statistical significances were calculated by GraphPad Prism 6.0 software.
# mouse models = settings: cited from earlier work
# BGT1 = settings: cited from earlier work
# GABAA receptor = target: GABAA receptor; design: method as in PMID 34595152; settings: agonist; cited from earlier work
# hBGT1 E52A = target: T2, hBGT1 E52A (Homo sapiens, UniProt P48065, E52A); design: method as in PMID 34595152; settings: ref 12; cited from earlier work
# T2 construct: host or cells: tsA201 cells (transformed HEK293), transient expression
# T2 sequence (P48065 1-614 E52A): T1 sequence (P48065 1-614) with E52A
smiles,measurement,setting,value
NCc1cc(C(=O)O)[nH]n1 [Compound 11],inhibition at 100 µM,hBGT1,26%
"COc1cccc2c1C(=O)c1c(O)c3c(c(O)c1C2=O)C[C@@](O)(C(=O)CO)C[C@@H]3O[C@H]1C[C@H](N)[C@H](O)[C@H](C)O1 [doxorubicin, reference compound]",impact on SH-SY5Y viability,[1],significantly decreased SH-SY5Y viability
"NCCCC(=O)O [GABA, γ-Aminobutyric acid, reference compound]",effect on compound 9-induced morphological changes of astrocytes,[2],prevented these changes
same,cell viability compared to MPP+ alone,"[3]; GABA 10 μM, positive control, 1 mM MPP+",significantly increased cell viability
"C[n+]1ccc(-c2ccccc2)cc1 [MPP^+, 1-methyl-4-phenylpyridinium, reference compound]",viability of SH-SY5Y cells,[3]; neurotoxin 1 mM,significantly reduced the viability
Cc1ccsc1C(=CCCN(C)C1CCCc2o[nH]c(=O)c21)c1sccc1C (stereo not drawn) [EF1502],anticonvulsant properties,mouse models; ref 13,anticonvulsant properties
same,anticonvulsant effect when coadministered with tiagabine,mouse models; ref 14,synergistic effect
"N[C@@]12CC[C@H](C(=O)O)[C@@H]1C2 [bicyclo-GABA, (1S,2S,5R)-5-aminobicyclo[3.1.0]hexane-2-carboxylic acid]",pIC50,BGT1; ref 11,6.23
same,pIC50,BGT1; ref 12,5.82
same,pEC50,GABAA receptor,5.29
same,change in activity on substitution of Glu52 with alanine,hBGT1 E52A,drastic increase in activity
O=C(O)CC1CNCCO1 (stereo not drawn) [Compound 3],inhibition at 100 µM,hBGT1,40%
